This passage reports IC50 results from patent publication EP1984353B1, “AURORA KINASE MODULATORS AND METHOD OF USE” (Amgen, Inc, priority 2006, dated 2007).

Where a name gives a salt, the structure may show the parent alone. Read-outs that look alike come from different tables or passages of the source. Some results are limits rather than exact numbers.

One assay has as its target T1, AuroraA-TPX2 (Homo sapiens, UniProt O14965).
T1 construct: 20 µL of AuroraA-TPX2 KD GST; GST
T1 sequence (O14965 133-383 limits assumed): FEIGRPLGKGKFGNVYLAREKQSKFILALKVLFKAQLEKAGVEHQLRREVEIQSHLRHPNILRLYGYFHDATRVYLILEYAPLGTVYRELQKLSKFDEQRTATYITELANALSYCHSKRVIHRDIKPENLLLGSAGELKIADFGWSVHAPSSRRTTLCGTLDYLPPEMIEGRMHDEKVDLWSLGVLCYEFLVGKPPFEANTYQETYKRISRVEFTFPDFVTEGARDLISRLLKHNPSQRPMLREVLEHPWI
T1 sequence (Q9ULW0 1-43 partner limits assumed): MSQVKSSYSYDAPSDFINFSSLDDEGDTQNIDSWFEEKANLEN
Nature of the assay: AuroraA-TPX2 Homogeneous Time Resolved Fluorescent (HTRF) kinase assay. Format: biochemical. How it is done:
AuroraA-TPX2-Homogeneous Time Resolved Fluorescent (HTRF) Kinase Assay:
The Aurora-A HTRF assay begins with Aurora-A in the presence of ATP phosphorylating the biotinylated peptide PLK. The reaction incubates for about 120 min. Detection reagents are added to quench the reaction. These agents stop the reaction by diluting out the enzyme and chelating the metals due to the presence of EDTA. After addition, the assay is incubated overnight to allow the detection reagents to equilibrate.
The final concentration of PLK is about 1 µM. […] Buffer conditions are as follows: 60mM HEPES pH 7.5, 25mM NaCl, 10mM MgCl, 2mM DTT, 0.05% BSA.
The assay is quenched and stopped with 160 µL, of detection reagent. Detection reagents are as follows: Buffer made of 50mM Tris, pH 7.5, 100mM NaCl, 3mM EDTA, 0.05% BSA, 0.1% Tween20. Added to this buffer prior to reading is Steptavidin allophycocyanin (SA-APC) at a final conc in the assay of 0.0005 mg/mL, and europilated anti-phosphoPLK Ab (Eu-anti-PLK) at a final conc of 0.02 nM.
The assay plate is read in either a Discovery or a RubyStar. The eu-anti-PLK is excited at 320 nm and emits at 615 nm to excite the SA-APC which in turn emits at 655 nm.
(In general: Time-resolved FRET reads energy transfer from a long-lived donor to a nearby acceptor.)

A further assay addresses T2, AuroraB (Homo sapiens, UniProt Q96GD4).
T2 construct: 20 µL of AuroraB FL His; His
Nature of the assay: AuroraB Homogeneous Time Resolved Fluorescent (HTRF) kinase assay. It is filed as biochemical. How it is done: AuroraB-Homogeneous Time Resolved Fluorescent (HTRF) Kinase Assay:
The AuroraB HTRF assay begins with AuroraB in the presence of ATP phosphorylating the biotinylated peptide Histone H3. The reaction incubates for about 90 min. the reaction is quentched by addition of detection reagents, which stop the reaction by diluting out the enzyme and chelating the metals due to the presence of EDTA. After addition, the assay is incubated for about 60 min to allow detection reagents to equilibrate.
The AuroraB HTRF assay comprises 1 µL of compound in 100% DMSO, 20 µL of ATP and biotinylated Histone H3, and 20 µL of AuroraB FL His for a final volume of 41 µL. The final concentration of Histone H3 is 0.1 µM. The final concentration of ATP is 23 µM (Km(app) = 23 µM+/-2.6) and the final concentration of AuroraB is 400 pM. Buffer conditions are as follows: 50mM HEPES pH 7.5, 5mM NaCl, 0.5mM MgCl, 0.5mM MnCl, 2mM DTT, 0.05% BSA.
The assay is quenched and stopped with 160 µL of detection reagent. Detection reagents are as follows: Buffer made of 50mM Tris, pH 7.5, 100mM NaCl, 3mM EDTA, 0.05% BSA, 0.1% Tween20. Added to this buffer prior to reading is Steptavidin allophycocyanin (SA-APC) at a final conc in the assay of 0.001 mg/mL, and europilated anti-phosphoHistoneH3 Ab (Eu-anti-HisH3) at a final conc of 0.064 nM.
The assay plate is read in either a Discovery or a RubyStar. The eu-anti-HisH3 is excited at 320 nm and emits at 615 nm to excite the SA-APC which in turn emits at 655 nm. The ratio of SA-APC at 655 nm (excited due to close proximity to the Eu-anti-HisH3 because of phosphorylation of the peptide) to free Eu-anti-HisH3 at 615 nm will give substrate phosphorylation.

[1] abbreviates: read-out: average inhibitory activity (IC50) in the Aurora kinase A HTRF assay.
[2] abbreviates: read-out: average activity in the Aurora kinase B HTRF assay.
[3] abbreviates: read-out: average activity in the Aurora kinase A HTRF assay.
The mark [4] stands for this setting: average, given as numbers, unit inferred, read-out: AurB_ _IC50_IP (Avg).
The mark [5] stands for this setting: average, given as numbers, unit inferred, read-out: AurA/TP X2_ IC50_IP (Avg).
Setting [6] is: average, given as class symbols, read-out: AurB_ _IC50_IP (Avg).

T2 sequence (Q96GD4 whole entry): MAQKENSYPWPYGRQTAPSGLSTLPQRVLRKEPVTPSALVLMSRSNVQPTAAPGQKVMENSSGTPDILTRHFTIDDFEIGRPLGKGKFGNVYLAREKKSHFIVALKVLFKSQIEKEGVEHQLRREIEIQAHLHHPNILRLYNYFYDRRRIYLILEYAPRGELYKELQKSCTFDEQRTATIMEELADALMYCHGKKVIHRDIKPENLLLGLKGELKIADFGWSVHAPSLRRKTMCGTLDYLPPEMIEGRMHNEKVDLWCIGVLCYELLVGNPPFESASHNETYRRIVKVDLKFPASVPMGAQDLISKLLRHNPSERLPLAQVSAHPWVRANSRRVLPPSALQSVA

With `CNc1cc(-c2cccnc2Oc2ccc(Nc3nnc(-c4ccc(F)cc4)c4ccccc34)cn2)ccn1` [Example 60, 2-((5-((4-(4-fluorophenyl)-1-phthalazinyl)amino)-2-pyridinyl)oxy)-N-methyl-3,4'-bipyridin-2'-amine], at AuroraA-TPX2 (setting [1]), the IC50 was less than 500 nM. In the case of `c1ccc(-c2nnc(Nc3ccc(Oc4ncccc4-c4ccnc5[nH]ccc45)cc3)c3ccccc23)cc1` [Example 61, 4-phenyl-N-(4-((3-(1H-pyrrolo[2,3-b]pyridin-4-yl)-2-pyridinyl)oxy)phenyl)-1-phthalazinamine], the IC50 on AuroraA-TPX2 (setting [1]) is less than 500 nM.

Turning to `Nc1nccc(-c2cccnc2Oc2ccc(Nc3nnc(N4CCCCC4)c4ccccc34)cc2)n1` [Example 67, N-(4-((3-(2-amino-4-pyrimidinyl)-2-pyridinyl)oxy)phenyl)-4-(1-piperidinyl)-1-phthalazinamine], the IC50 at AuroraA-TPX2 (setting [1]) is less than 500 nM.

For `CNc1nccc(-c2cccnc2Oc2ccc(Nc3nnc(N4CCCCC4)c4ccccc34)cn2)n1` [Example 68, N-(6-((3-(2-(methylamino)-4-pyrimidinyl)-2-pyridinyl)oxy)-3-pyridinyl)-4-(1-piperidinyl)-1-phthalazinamine], the IC50 on AuroraA-TPX2 (setting [1]) is less than 500 nM. On to `NC(=O)c1n[nH]cc1-c1cccnc1Oc1ccc(Nc2nnc(-c3ccccc3)c3ccccc23)cc1` [Example 241, 4-(2-(4-(4-phenylphthalazin-1-ylamino)phenoxy)pyridin-3-yl)-1H-pyrazole-3-carboxamide], for which the IC50 on AuroraB (setting [2]) and on AuroraA-TPX2 (setting [3]) was no more than 1000 nM throughout.

For `CNc1nccc(-c2cccnc2Oc2ccc(Nc3nnc(-c4cc(Cl)cs4)c4ccccc34)cc2)n1` [Example 245, 4-(4-chlorothiophen-2-yl)-N-(4-(3-(2-(methylamino)pyrimidin-4-yl)pyridin-2-yloxy)phenyl)phthalazin-1-amine], the IC50 at AuroraB (setting [2]) and on AuroraA-TPX2 (setting [3]) was no more than 1000 nM throughout.

On to `c1ccc(-c2nnc(Nc3cnc(Oc4ccccc4-c4ccncc4)nc3)c3ccccc23)cc1` [Example 468, 4-Phenyl-N-(2-(2-(pyridin-4-yl)phenoxy)pyrimidin-5-yl)phthalazin-1-amine], for which the IC50 at AuroraB (setting [2]) and at AuroraA-TPX2 (setting [3]) was no more than 100 nM throughout. Regarding `Nc1ncc(F)c(-c2cccnc2Oc2ccc(Nc3nnc(-c4ccccc4)c4ccccc34)cc2)n1` [Example 469, N-(4-(3-(2-Amino-5-fluoropyrimidin-4-yl)pyridin-2-yloxy)phenyl)-4-phenylphthalazin-1-amine], the IC50 on AuroraB (setting [2]) and on AuroraA-TPX2 (setting [3]) was no more than 100 nM each time. On to `COC(=O)c1cc(-c2ccccc2)nnc1Nc1ccc(Oc2ncccc2-c2ccnc(N)n2)cc1` [Example 470, methyl 3-((4-((3-(2-amino-4-pyrimidinyl)-2-pyridinyl)oxy)phenyl)amino)-6-phenyl-4-pyridazinecarboxylate], for which the IC50 at AuroraB (setting [2]) and on AuroraA-TPX2 (setting [3]) was no more than 1000 nM in each case.

For `Nc1nccc(-c2cccnc2Oc2ccc(Nc3nnc(-c4ccc(CN5CCCC5)cc4)c4ccccc34)cc2)n1` [Example Method E, N-(4-(3-(2-aminopyrimidin-4-yl)pyridin-2-yloxy)phenyl)-4-(4-(pyrrolidin-1-ylmethyl)phenyl)phthalazin-1-amine], the IC50 at AuroraB (setting [2]) and on AuroraA-TPX2 (setting [3]) was no more than 1000 nM in each case.

On to `O=P(O)(O)OCCCNc1nccc(-c2cccnc2Oc2ccc(Nc3nnc(-c4ccccc4)c4ccccc34)cc2)n1` [Example Method F, 3-(4-(2-(4-(4-phenylphthalazin-1-ylamino)phenoxy)pyridin-3-yl)pyrimidin-2-ylamino)propyl dihydrogen phosphate dihydrochloride], for which the IC50 on AuroraB (setting [2]) and on AuroraA-TPX2 (setting [3]) was no more than 100 nM each time. With `Cc1cc(-c2nnc(Nc3ccc(Oc4ncccc4-c4ccnc(N)n4)cc3)c3ccccc23)sn1` [compound 251, N-(4-((3-(2-amino-4-pyrimidinyl)-2-pyridinyl)oxy)phenyl)-4-(3-methyl-5-isothiazolyl)-1-phthalazinamine], the IC50 at AuroraB (setting [4]) was found to be 0.4 nM; on AuroraA-TPX2 (setting [5]) it was 16 nM.

With `c1ccc(-c2nnc(Nc3ccc(Oc4ccccc4-c4ccncc4)cc3)c3ccccc23)cc1` [compound 252, 4-phenyl-N-(4-((2-(4-pyridinyl)phenyl)oxy)phenyl)-1-phthalazinamine], the IC50 came out at 660 nM at AuroraB (setting [4]) and 166 nM on AuroraA-TPX2 (setting [5]). Turning to `COc1cccc(OC)c1-c1nnc(Nc2ccc(Oc3ncccc3-c3ccnc(N)n3)cc2)c2ccccc12` [compound 253, N-(4-((3-(2-amino-4-pyrimidinyl)-2-pyridinyl)oxy)phenyl)-4-(2,6-bis(methyloxy)phenyl)-1-phthalazinamine], the values for the IC50 on AuroraB (setting [4]) and at AuroraA-TPX2 (setting [5]) were 472 nM and 2320 nM, respectively.

For `Cc1csc(-c2cc(C)c(Nc3ccc(Oc4ncccc4-c4ccnc5c4CCCN5)cc3)nn2)n1` [compound 286, 4-methyl-6-(4-methyl-1,3-thiazol-2-yl)-N-(4-((3-(5,6,7,8-tetrahydro-1,8-naphthyridin-4-yl)-2-pyridinyl)oxy)phenyl)-3-pyridazinamine], at AuroraB (setting [6]), the IC50 lay in the range of 500 to 2500 nM. Still for that read-out and setting: for `COc1ccc(CNc2cc(-c3ccccc3Oc3ncc(Nc4nnc(-c5ccccc5)c5ccccc45)cn3)ccn2)cc1` [compound 290, N-(2-((2-(2-(((4-(methyloxy)phenyl)methyl)amino)-4-pyridinyl)phenyl)oxy)-5-pyrimidinyl)-4-phenyl-1-phthalazinamine] the value was 500 to 2500 nM; for `c1ccc(-c2nnc(Nc3ccc(Oc4ncccc4-c4ccnc(N5CCC5)n4)cc3)c3ccccc23)cc1` [compound 294, N-(4-((3-(2-(1-azetidinyl)-4-pyrimidinyl)-2-pyridinyl)oxy)phenyl)-4-phenyl-1-phthalazinamine], no more than 100 nM. In the case of `Oc1nccc(-c2cccnc2Oc2ccc(Nc3nnc(-c4ccccc4)c4ccccc34)cc2)n1` [compound 325, 4-(2-((4-((4-phenyl-1-phthalazinyl)amino)phenyl)oxy)-3-pyridinyl)-2-pyrimidinol], the IC50 at AuroraA-TPX2 (average, given as class symbols, read-out: AurA/TP X2_ IC50_IP (Avg)) lay in the range of 500 to 2500 nM. For the compound `Nc1nccc(-c2cccnc2Oc2ccc(Nc3nnc(N4CCC(CO)CC4)c4ccccc34)cc2)n1` [compound 353, (1-(4-((4-((3-(2-amino-4-pyrimidinyl)-2-pyridinyl)oxy)phenyl)amino)-1-phthalazinyl)-4-piperidinyl)methanol], the IC50 on AuroraB (setting [6]) was no more than 100 nM. Same read-out and setting: for `C[C@H]1CN(c2nnc(Nc3ccc(Oc4ncccc4-c4ccnc(N)n4)cc3)c3ccccc23)CCN1` [compound 398, N-(4-((3-(2-amino-4-pyrimidinyl)-2-pyridinyl)oxy)phenyl)-4-((3S)-3-methyl-1-piperazinyl)-1-phthalazinamine] the value was 100 to 500 nM. With `Nc1nccc(-c2cccnc2Oc2ccc(Nc3nnc(-c4cccc(CNCCO)c4)c4ccccc34)cc2)n1` [compound 413, 2-(((3-(4-((4-((3-(2-amino-4-pyrimidinyl)-2-pyridinyl)oxy)phenyl)amino)-1-phthalazinyl)phenyl)methyl)amino)ethanol], the IC50 on AuroraB (setting [6]) is no more than 100 nM.
